Test results taken from patent US10385005B2, “Compositions and methods for glucose transport inhibition” (OHIO UNIVERSITY, priority 2010, dated 2019).

Columns and labels:
[1] = tested on: insulin-like glucose uptake stimulatory activity; assay: Insulin-like activity of PGG analogs; format: cell-based
MCF-7 cells = assay: Glucose uptake assay (3H 2-DG), MCF-7; format: cell-based, human; conditions: 30 μM
Description: (§1) Cells were treated with α-PGG for 20 minutes before ^3H-labeled 2-DG. Thirty minutes after the addition of 2-DG, cells were harvested, lysed, and counted for their respective glucose uptake. Samples: 1. Mock; 2. […] WZB-25 (30 μM); 5. WZB-26 (30 μM); and 6. WZB-27 (30 μM).
(§2) Compounds 1a and 2a were initially prepared as potential anti-diabetic analogs of α-PGG (FIG. 1). Given the tight SAR of this class of compounds, it was hypothesized that a more rigid scaffold (i.e., a benzene ring) might enhance the activity.

H1299 cells = assay: Standard glucose uptake assay, H1299; format: cell-based, human
Description: (§3) Briefly, H1299 cancer cells were treated with or without the compounds (30 μM) in triplicates for 10 min before the glucose uptake assay. Cellular glucose uptake was measured by incubating cells in the glucose-free KRP buffer with […] [^3H]2-deoxyglucose (specific activity, 40 Ci/mmol) for 30 min in the absence or presence of compounds. After the cells were washed with ice-cold PBS and lysed by 0.2 N NaOH, the cell lysates were transferred to scintillation counting vials and the radioactivity in the cell lysates was quantified by liquid scintillation counting. Cell growth measurements were performed using an MTT assay in hexads in a 96-well tissue culture plate with 5,000 cells plated in each well. The cells were incubated in presence or absence of the compounds (30 μM) for 48 h. After incubation, cell viabilities were assayed using a 96-well SPECTRAMAX™ absorbance/fluorescence plate reader (Molecular Devices).
Cancer cells are treated with or without the compounds for 10 min before the glucose uptake assay. Cellular glucose uptake will be measured by incubating cells in glucose-free RPMI 1640 with […] [^3H]2-deoxyglucose (specific activity, 40 Ci/mmol) for 30 min in the absence and presence of compounds. After the cells are washed with ice-cold PBS and lysed, the cell lysates will be transferred to scintillation counting vials and the radioactivity in the cell lysates is quantified by liquid scintillation counting.

RKO cells = assay: Glucose uptake assay (3H 2-DG), RKO; format: cell-based, human; conditions: 30 μM
Description: as §1, §2

H1299 lung cancer cells = assay: MTT cell growth / viability assay, H1299; format: cell-based, human; conditions: Table 2, 30 μM, 48 h
Description: as §3
MTT assays are performed by the following well-established method. In a 96 well tissue culture plate 10,000 cells are plated in each well. The cells are incubated in presence or absence of the compounds for 18 h. 3-(4,5-Dimethylthiazol-2-yl)-2,5-diphenyltetrazolium bromide (MTT) is dissolved in PBS (10 mg/ml) and filter sterilized. Three hours before the end of the incubation 20 μL of MTT solution is added to each well containing cells in a 96-well plate. The plate is incubated in an incubator at 37° C. for 3 h. Media is aspirated gently and 200 μL of DMSO is added to each well to dissolve formazan crystals. The absorbance is measured at 550 nm for cell viability.

HeLa cells [2] = assay: Glucose uptake assay (3H 2-DG), HeLa; format: cell-based, human
Description: Cells were treated with α-PGG for 20 minutes before ^3H-labeled 2-DG. […] Samples: 1. Mock; 2. […] WZB-25 (30 μM); 5. WZB-26 (30 μM); and 6. WZB-27 (30 μM). Compounds 1a and 2a were initially prepared as potential anti-diabetic analogs of α-PGG (FIG. 1). Given the tight SAR of this class of compounds, it was hypothesized that a more rigid scaffold (i.e., a benzene ring) might enhance the activity. […] Error bars in FIG. 8 represent standard deviations of the measurements. Samples were done in triplicates and the experiment was repeated three times.

HeLa cells [3] = assay: Apoptosis (ELISA) assay; format: cell-based, human; conditions: FIG. 5B
[4] = tested on: RKO (colon), HeLa (cervical), and MCF-7 (breast) human cancer cells; assay: Cell viability (MTT) assay of α-PGG treated cancer cells; format: cell-based; conditions: FIG. 5A
From the text: (§4) A. α-PGG treatment led to 70-80% reduction of cell viability as measured by a cell viability (MTT) assay. […] C. α-PGG treatment of HeLa cells led to a decrease in G1 phase cells but a significant increase (˜3-fold) in apoptotic cells as determined by an antibody-coupled flow cytometry study.

HeLa cells [5] = assay: Antibody-coupled flow cytometry study; format: cell-based, human; conditions: FIG. 5C
From the text: as §4

| Structure (SMILES) | insulin-like activity [1] | Glucose transport inhibitory activity (%) (MCF-7 cells) | Glucose transport inhibition (%) (H1299 cells; Table 2, H1299, 30 μM, untreated cells 0% inhibition) | % inhibition of basal glucose transport (H1299 cells; Table 3, 30 μM in H1299 cells, listed as WZB-26) [%] | Glucose transport inhibitory activity (%) (RKO cells) | Cell growth inhibition (%) (H1299 lung cancer cells) | Glucose transport inhibitory activity (%) (HeLa cells [2]; Hela, 30 μM) | increase in apoptosis (HeLa cells [3]) | concentration at which glucose transport inhibition starts (HeLa cells [2]; HeLa, 20 min preincubation) [µM] | reduction of cell viability [4] | increase in apoptotic cells (HeLa cells [5]) [fold] |
| --- | --- | --- | --- | --- | --- | --- | --- | --- | --- | --- | --- |
| COc1cccc(OC(=O)c2cc(O)c(O)c(O)c2)c1OC(=O)c1cc(O)c(O)c(O)c1 [Compound 1a] | without any insulin-like activity | 33.0 ± 0.5 | 58.4±6.3 | 84.0 ± 1.9 | 57.2 ± 4.4 | 36.0±6.1 | 46.3 ± 3.3 | – | – | – | – |
| O=C(OC[C@H]1O[C@@H](OC(=O)c2cc(O)c(O)c(O)c2)[C@H](OC(=O)c2cc(O)c(O)c(O)c2)[C@@H](OC(=O)c2cc(O)c(O)c(O)c2)[C@@H]1OC(=O)c1cc(O)c(O)c(O)c1)c1cc(O)c(O)c(O)c1 [α-PGG, penta-galloyl-glucose] | – | – | – | – | – | – | – | more than 2 fold | 5 | 70-80% | ~3 |
